Key:
K562/A02 = test: Cytotoxicity against human K562/A02 cells by MTT assay; format: functional, cell-based
K562 [1] = test: Cytotoxicity against human K562 cells by MTT assay; format: functional, cell-based
Calu-1 = test: Antiproliferative activity against human Calu-1 cells incubated for 24 hrs by MTT assay; format: functional, cell-based; conditions: Calu-1, 24 h
[2] = Selectivity ratio of IC50 for African green monkey Vero cells to IC50 for human Calu-1 cells; format: toxicity; conditions: Vero cells / Calu-1 cells, read-out: Ratio IC50
[3] = Selectivity ratio of IC50 for African green monkey Vero cells to IC50 for human HeLa cells; format: toxicity; conditions: read-out: Ratio IC50
L02 [4] = test: Cytotoxicity against human L02 cells; format: cell-based
[5] = Selectivity ratio of IC50 for human L02 cells to IC50 for human HeLa cells; format: toxicity; conditions: read-out: Ratio IC50
A549 [6] = test: Antiproliferative activity against human A549 cells incubated for 24 hrs by MTT assay; format: functional, cell-based; conditions: A549, 24 h
Vero = test: Cytotoxicity against African green monkey Vero cells; format: cell-based; conditions: Chlorocebus sabaeus
[7] = Selectivity ratio of IC50 for human L02 cells to IC50 for human Calu-1 cells; format: toxicity; conditions: L02 cells / Calu-1 cells, read-out: Ratio IC50
HeLa [8] = test: Antiproliferative activity against human HeLa cells incubated for 24 hrs by MTT assay; format: functional, cell-based
[9] = Selectivity ratio of IC50 for human L02 cells to IC50 for human A549 cells; format: toxicity; conditions: read-out: Ratio IC50
[10] = Selectivity ratio of IC50 for African green monkey Vero cells to IC50 for human A549 cells; format: toxicity; conditions: read-out: Ratio IC50
BGC-823 = test: Antiproliferative activity against human BGC-823 cells incubated for 48 hrs by MTT assay; format: functional, cell-based; conditions: BGC-823, 48 h
L02 [11] = test: Cytotoxicity against human HL7702 cells incubated for 48 hrs by MTT assay; format: cell-based; conditions: L02, 48 h
A549 [12] = test: Antiproliferative activity against human A549 cells incubated for 48 hrs by MTT assay; format: functional, cell-based; conditions: A549, 48 h
HepG2 [13] = test: Antiproliferative activity against human HepG2 cells incubated for 48 hrs by MTT assay; format: functional, cell-based; conditions: HepG2, 48 h
[14] = Cytotoxicity against human C918 cells incubated for 72 hrs by CCK8 assay; format: functional, cell-based; conditions: C918, 72 h
[15] = Cytotoxicity against human MUM-2B cells incubated for 72 hrs by CCK8 assay; format: functional, cell-based
K562/VCR = test: Cytotoxicity against human K562/VCR cells incubated for 72 hrs by CCK8 assay; format: functional, cell-based
K562 [16] = test: Cytotoxicity against human K562 cells incubated for 72 hrs by CCK8 assay; format: functional, cell-based; conditions: K562, 72 h
K562/Adr [17] = test: Antiproliferative activity against human K562/ADR cells incubated for 72 hrs by CCK8 assay; format: functional, cell-based
K562 [18] = test: Potency index, ratio of etoposide IC50 to test compound IC50 for antiproliferative activity against human K562 cells; format: functional
K562/Adr [19] = test: Potency index, ratio of etoposide IC50 to test compound IC50 for antiproliferative activity against human K562/ADM cells; format: functional
K562 [20] = test: Antiproliferative activity against human K562 cells incubated for 72 hrs by CCK8 assay; format: functional, cell-based; conditions: K562, 72 h
[21] = Resistance index, ratio of IC50 for human K562/AO2 cells to IC50 for human K562 cells; format: functional
HeLa [22] = test: Cytotoxicity against human HeLa cells by MTT assay; format: functional, cell-based
HepG2 [23] = test: Antiproliferative activity against human HepG2 cells incubated for 72 hrs by MTT assay; format: functional, cell-based; conditions: HepG2, 72 h
SK-OV-3 = test: Antiproliferative activity against human SK-OV-3 cells incubated for 72 hrs by MTT assay; format: functional, cell-based; conditions: SK-OV-3, 72 h
B16-F10 = test: Antiproliferative activity against mouse B16/F10 cells incubated for 72 hrs by MTT assay; format: functional, cell-based; conditions: B16-F10, 72 h
MCF7 = test: Antiproliferative activity against human MCF7 cells incubated for 72 hrs by MTT assay; format: functional, cell-based; conditions: MCF7, 72 h
A549 [24] = test: Antiproliferative activity against human A549 cells incubated for 72 hrs by MTT assay; format: functional, cell-based; conditions: A549, 72 h
CT26 = test: Antiproliferative activity against […] cells incubated for 72 hrs by MTT assay; format: functional, cell-based; conditions: Mus musculus, CT26, 72 h
HeLa [25] = test: Antiproliferative activity against human HeLa cells incubated for 72 hrs by MTT assay; format: functional, cell-based

Work on `COc1cc([C@@H]2c3cc4c(cc3[C@@H](NC(=O)C(=O)c3c[nH]c5ccc(C(=O)NC(C)C)cc35)[C@H]3COC(=O)[C@H]23)OCO4)cc(OC)c1OC` yielded an IC50 (K562/A02) of 1270 nM and an IC50 (K562 [1]) of 1270 nM.
Compound `COc1cc([C@@H]2c3cc4c(cc3[C@H](OC(=O)CCCCC3CCSC(c5ccc(C(F)(F)F)cc5)S3)[C@H]3COC(=O)[C@H]23)OCO4)cc(OC)c1OC` (stereo partly drawn) has an IC50 (Calu-1) of 2680 nM, a selectivity ratio [2] of at least 9.7 and a selectivity ratio [3] of at least 9.7. The IC50 (L02 [4]) was over 93800 nM, the selectivity ratio [5] was at least 9.7 and the IC50 (A549 [6]) was 2680 nM. The IC50 (Vero) was over 93800 nM, the selectivity ratio [7] was at least 9.7 and the IC50 (HeLa [8]) was 2680 nM. The selectivity ratio [9] was at least 9.7 and the selectivity ratio [10] was at least 9.7.
Compound `COc1cc([C@@H]2c3cc4c(cc3[C@@H](Sc3ncnc5nc[nH]c35)[C@H]3COC(=O)[C@H]23)OCO4)cc(OC)c1OC` has an IC50 (BGC-823) of 300 nM, an IC50 (L02 [11]) of 300 nM and an IC50 (A549 [12]) of 300 nM. It also gave an IC50 (HepG2 [13]) of 300 nM.
Work on `COc1cc(/C=C/c2ccc(OCCC(=O)O[C@H]3c4cc5c(cc4[C@@H](c4cc(OC)c(OC)c(OC)c4)[C@H]4C(=O)OC[C@@H]43)OCO5)cc2)cc(OC)c1` yielded an IC50 [14] of 81 nM and an IC50 [15] of 81 nM.
`COc1cc([C@@H]2c3cc4c(cc3[C@H](OC(=O)c3ccc5cc[nH]c5c3)[C@H]3COC(=O)[C@H]23)OCO4)cc(OC)c1OC` gave an IC50 (K562/VCR) of 81 nM and an IC50 (K562 [16]) of 81 nM.
For `COc1cc([C@@H]2c3cc4c(cc3[C@H](OC(=O)CCCCC3CCSC(c5cccc(C(F)(F)F)c5)S3)[C@H]3COC(=O)[C@H]23)OCO4)cc(OC)c1OC` (stereo partly drawn), the IC50 (Calu-1) was 2680 nM, the selectivity ratio [2] was at least 9.7 and the selectivity ratio [3] was at least 9.7. For the same compound, the IC50 (L02 [4]) was over 93800 nM, the selectivity ratio [5] was at least 9.7 and the IC50 (A549 [6]) was 2680 nM. It also gave an IC50 (Vero) of over 93800 nM, a selectivity ratio [7] of at least 9.7 and an IC50 (HeLa [8]) of 2680 nM. For the same compound, the selectivity ratio [9] was at least 9.7 and the selectivity ratio [10] was at least 9.7.
In the case of `COc1cc([C@@H]2c3cc4c(cc3[C@H](OCC(=O)N3C(=O)C(=O)c5ccc(Cl)cc53)[C@H]3COC(=O)[C@H]23)OCO4)cc(OC)c1OC`, the IC50 (K562/Adr [17]) is reported as 19 nM, the “Ratio IC50” value (K562 [18]) is reported as 8.8 and the “Ratio IC50” value (K562/Adr [19]) is reported as 8.8. For the same compound, the IC50 (K562 [20]) was 19 nM.
For `COc1cc([C@@H]2c3cc4c(cc3[C@@H](c3c[nH]c5ccc(OCc6ccc(C(C)(C)C)cc6)cc35)[C@H]3COC(=O)[C@H]23)OCO4)cc(OC)c1OC`, the IC50 (K562/A02) was 289 nM, the “Ratio IC50” value [21] was 0.004 and the IC50 (HeLa [22]) was over 260 nM. For the same compound, the IC50 (K562 [1]) was over 260 nM.
For `COc1cc([C@@H]2c3cc4c(cc3[C@H](OC(=O)Cc3c[nH]c5ccccc35)[C@H]3COC(=O)[C@H]23)OCO4)cc(OC)c1OC`, the IC50 (K562/VCR) was 202 nM and the IC50 (K562 [16]) was 43 nM.
Compound `COc1ccc(-c2coc3cc(OCCCC(=O)O[C@@H]4c5cc6c(cc5[C@@H](c5cc(OC)c(OC)c(OC)c5)[C@H]5C(=O)OC[C@@H]54)OCO6)ccc3c2=O)cc1` has an IC50 (HepG2 [23]) of 213 nM, an IC50 (SK-OV-3) of 213 nM and an IC50 (B16-F10) of 213 nM. For the same compound, the IC50 (MCF7) was 213 nM, the IC50 (A549 [24]) was 213 nM and the IC50 (CT26) was 213 nM. It also gave an IC50 (HeLa [25]) of 213 nM.
In the case of `COc1cc([C@@H]2c3cc4c(cc3[C@H](OCC(=O)N3C(=O)C(=O)c5c(Br)cccc53)[C@H]3COC(=O)[C@H]23)OCO4)cc(OC)c1OC`, the IC50 (K562/Adr [17]) is reported as 19 nM, the “Ratio IC50” value (K562 [18]) is reported as 8.8 and the “Ratio IC50” value (K562/Adr [19]) is reported as 8.8. For the same compound, the IC50 (K562 [20]) was 19 nM.

Reference: ChEMBL document CHEMBL4818987, “Recent advances of podophyllotoxin/epipodophyllotoxin hybrids in anticancer activity, mode of action, and structure-activity relationship: An update (2010-2020)” (Eur J Med Chem, 2020)
